In general, viscosity refers to the internal friction of a fluid under shear. Low readings indicate easy flow, high ones sluggish flow.

The text below walks through data of the CheMixHub ionic liquid set.

Structures are written as SMILES. ± gives the uncertainty stated by the source.

This data set is described as follows: xn = mol fraction of the nth substance listed.

As for `CCCCCCCCCCCCCCCC[N+](C)(C)C.[Br-]` + O=C(CO)[C@@H](O)[C@H](O)[C@@H](O)CO + O, the viscosity reads like this: (298.15 K, 100 kPa, x1 = 7.21e-06, x2 = 0) 0.896 ± 0.06 mPa·s; (298.15 K, 100 kPa, x1 = 1.442e-05, x2 = 0) 0.898 ± 0.06 mPa·s; (298.15 K, 100 kPa, x1 = 2.162e-05, x2 = 0) 0.9 ± 0.06 mPa·s; (308.15 K, 100 kPa, x1 = 7.21e-06, x2 = 0) 0.742 ± 0.06 mPa·s; (308.15 K, 100 kPa, x1 = 1.442e-05, x2 = 0) 0.744 ± 0.06 mPa·s; (308.15 K, 100 kPa, x1 = 2.162e-05, x2 = 0) 0.745 ± 0.06 mPa·s. Further, the viscosity amounted to 0.617 ± 0.06 mPa·s (318.15 K, 100 kPa, x1 = 7.21e-06, x2 = 0); 0.617 ± 0.06 mPa·s (318.15 K, 100 kPa, x1 = 1.442e-05, x2 = 0); 0.617 ± 0.06 mPa·s (318.15 K, 100 kPa, x1 = 2.162e-05, x2 = 0).

In the case of `CCCC[P+](CCCC)(CCCC)CCCC.[O-]c1cccnc1` + O=C=O, the viscosity (293 K, 101 kPa, x2 = 0.5098) stood at 90000 mPa·s.
